Measured values: patent publication US20050232864A1, “Method for phenotyping using nmr spectroscopy” (priority 2002, published 2005)

Assay: Pharmacokinetic parameters of CBZ in rabbit plasma by DNP-NMR compared with LC-MS (Example 3)
Format: in vivo
Settings: single oral dose 40 mg/kg CBZ
Experimental: Samples were collected at 8 time points over a period of 24 hours, at the following times: 0 min., 15 min., 30 min., 1 hour, 2 hours, 4 hours, 8 hours and 24 hours. 2 ml blood was withdrawn from the marginal ear vein of the rabbit. Plasma was extracted from the blood and divided into two samples, one for LC-MS analysis and one for DNP and NMR analysis (˜0.5 ml for each).
Rabbit plasma (400 μl) in a 2 ml vial was treated with acetonitrile (750 μl) and sonicated with a sonication probe for 15 sec. Another portion of acetonitrile (750 μl) was added to the vial so as to rinse the probe, the vial was closed, agitated briefly on a whirly mixer and centrifuged at 14 000 rev/min for about 1 min. The supernatant was transferred into a fresh vial in portions and evaporated in a ThermoSavant SPD 111V speedvac. Towards the end of the evaporation, 20 μl of an aqueous stock solution of EDTA (1 μg/μl) was added and the mixture was evaporated to dryness. 50 μl of the stock solvent as described below was added to the solid residue, and the added weight was noted. The sample was sonicated for 15 min to dissolve the residue and centrifuged to force the whole sample to the bottom of the vial. The vial was weighed together with a pipette tip and the sample was collected into the pipette tip and dispensed drop wise into liquid nitrogen. The used vial and pipette tip was weighed again to assess the actual weight of the sample. The cooled sample pellets were placed in a sample cup and administered into a DNP-polariser.
The volume of the radical is not accounted for in the calculation.
The sample was dissolved in heated (60° C.) methanol-D4 containing 75 μg EDTA per 7.0 ml of methanol. The dissolved sample was collected in a 10 mm NMR-tube fitted with a NMR-spinner and kept in a portable magnetic field (12 mT). The sample was moved from the polariser into the NMR magnet as expediently as possible making sure that the tube is protected in the portable magnetic field during the transport.
A 1D ^13C NMR-spectrum was acquired with a 10 mm Varian direct detection probe at 100.393 MHz (400 MHz ^1H). […] The NMR acquisition parameters were a spectral width of 40 kHz (400 ppm), an acquisition time of 2.5 s, and a pulse angle of 90. […] The spectrum was acquired 5 s after dissolution was initiated.
First, the reference ^13C-NMR signal from HP001 was analysed by selecting one Lorentzian line shape model function to describe the signal. The algorithm calculates phase, amplitude, damping (or line width in frequency domain) and frequency. The first order phase was set fixed at zero. […] All phases of the peaks were zero with respect to the main phase and a Lorentzian line shape model function was assumed. […] The first order phase was fixed at zero, the zero order phase was determined by the algorithm.
0.11 μg, 0.33 μg, 0.5 μg, 1.0 μg, 1.5 μg, and 2.0 μg were spiked into […] rabbit plasma, incubated at 37° C. and prepared as described in the section on sample preparation.

[1] = Table 2, footnote: E-CBZ levels calculated, DNP-NMR
[2] = Table 2, footnote: E-CBZ levels calculated, LC-MS

With carbamazepine [CBZ] the AUC0.5-8h (Table 1, CBZ levels, DNP-NMR) was 52 µM·h, the Cmax (Table 1, CBZ levels, DNP-NMR) was 12 µM and the AUC0.5-8h (Table 1, CBZ levels, LC-MS) was 60 µM·h. The Cmax (Table 1, CBZ levels, LC-MS) was 13.3 µM, the AUC0.5-8h [1] was 52 µM·h and the Cmax [1] was 12 µM. The AUC0.5-8h [2] was 60 µM·h and the Cmax [2] was 13.3 µM.
